Columns and labels:
[1] = mn = molality of the nth substance listed, in mol/kg; conditions: 85 kPa, Liquid; for viscosity: Falling or rolling sphere viscometry; for speed of sound: Frequency=3 MHz, Single path-length method; for mass density: Vibrating tube method
[2] = refractive index (Na D-line) (dimensionless); mn = molality of the nth substance listed, in mol/kg; conditions: 85 kPa, Liquid, Standard Abbe refractometry

C[C@H](N)C(=O)[O-].C[N+](C)(C)CCO [2-hydroxy-N,N,N-trimethylethanaminium L-alaninate] + O
Conditions	mass density, [1] [kg/m3]	refractive index, [2]	speed of sound, [1] [m/s]	viscosity, [1] [mPa·s]
288.15 K, m1 = 0.0108	999.398	1.3338	1468	1.143
288.15 K, m1 = 0.0204	999.663	1.334	1469.3	1.147
288.15 K, m1 = 0.03	999.914	1.3342	1470.7	1.151
288.15 K, m1 = 0.0401	1000.17	1.3345	1472.1	1.155
288.15 K, m1 = 0.0509	1000.44	1.3349	1473.6	1.16
288.15 K, m1 = 0.0583	1000.62	1.3351	1474.6	1.163
298.15 K, m1 = 0.0108	997.345	1.3331	1498.4	0.897
298.15 K, m1 = 0.0204	997.608	1.3333	1499.7	0.9
298.15 K, m1 = 0.03	997.858	1.3335	1501	0.903
298.15 K, m1 = 0.0401	998.115	1.3337	1502.4	0.906
298.15 K, m1 = 0.0509	998.382	1.3341	1503.9	0.91
298.15 K, m1 = 0.0583	998.553	1.3343	1504.9	0.912
308.15 K, m1 = 0.0108	994.326	1.3319	1521.6	0.732
308.15 K, m1 = 0.0204	994.588	1.3321	1522.9	0.735
308.15 K, m1 = 0.03	994.839	1.3323	1524.2	0.737
308.15 K, m1 = 0.0401	995.097	1.3326	1525.6	0.74
308.15 K, m1 = 0.0509	995.362	1.333	1527	0.743
308.15 K, m1 = 0.0583	995.534	1.3333	1528	0.745
318.15 K, m1 = 0.0108	990.514	1.3304	1537.5	0.604
318.15 K, m1 = 0.0204	990.779	1.3306	1538.8	0.607
318.15 K, m1 = 0.03	991.029	1.3309	1540	0.609
318.15 K, m1 = 0.0401	991.289	1.3312	1541.3	0.611
318.15 K, m1 = 0.0509	991.561	1.3315	1542.8	0.613
318.15 K, m1 = 0.0583	991.728	1.3318	1543.7	0.615
